Results on one cell line are retold here after the supplement of paper PMC10307832.

Holding throughout (assay): relative viability (nuclei count vs DMSO), 5 days (fraction); higher = more cells survive
Compound in assay [1]: COc1cc2c(Oc3ccc4[nH]c(C)cc4c3F)ncnc2cc1OCCCN1CCCC1 [Cediranib] + Nc1nc2[nH]cc(CCc3ccc(C(=O)N[C@@H](CCC(=O)O)C(=O)O)cc3)c2c(=O)[nH]1 [Pemetrexed] (partner 0.2 µM)
The method, boiled down:
(§1)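 Nuclei were stained with Hoechst during a one-step fixation (final 0.05% Triton X-100, 1% formaldehyde, 1 ug/ml Hoechst) carried out 5 days after dosing, then counted on 4× images. The cells, lung cancer lines in 1536-well plates, had been dosed by pin tool the day after seeding with one drug alone or a fixed anchor-drug dose plus five library-drug doses (not always all listed) in √10 steps. Relative viability is the nuclei count in treated wells divided by that in vehicle wells, and each value is the median of duplicate plates.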

Compound in assay [2]: Nc1ncn([C@H]2C[C@H](O)[C@@H](CO)O2)c(=O)n1 [Decitabine] + Cc1nc(Nc2ncc(C(=O)Nc3c(C)cccc3Cl)s2)cc(N2CCN(CCO)CC2)n1 [Dasatinib] (partner 0.075 µM)
The method, boiled down: as §1

Compound in assay [3]: O=C(C[C@H]1NCCC[C@@H]1O)Cn1cnc2cc(Br)c(Cl)cc2c1=O (racemic) [Halofuginone] + CC(=O)c1c(C)c2cnc(Nc3ccc(N4CCNCC4)cn3)nc2n(C2CCCC2)c1=O [Palbociclib] (partner 0.5 µM)
The method, boiled down:
as §1

Compound in assay [4]: O=C(C[C@H]1NCCC[C@@H]1O)Cn1cnc2cc(Br)c(Cl)cc2c1=O (racemic) [Halofuginone] + CC(C)C[C@H](NC(=O)[C@H](Cc1ccccc1)NC(=O)c1cnccn1)B(O)O [Bortezomib] (partner 0.002 µM)
In short, it runs like this:
as §1

As for UMC-11, the relative viability came out at 0.848 in assay [1] (first compound 0.04 µM); 0.752 in assay [1] (first compound 0.1265 µM); 0.738 in assay [1] (first compound 0.4 µM); 0.824 in assay [1] (first compound 1.265 µM); 0.764 in assay [1] (first compound 4 µM); 0.496 in assay [2] (first compound 0.04 µM). In addition, the relative viability in assay [2] (first compound 0.1265 µM) is 0.442; in assay [2] (first compound 0.4 µM), 0.293; in assay [2] (first compound 1.265 µM) it was 0.335; in assay [2] (first compound 4 µM) it was 0.327; in assay [3] (first compound 0.001 µM), 0.359; in assay [3] (first compound 0.003162 µM), 0.306. Further, the relative viability in assay [3] (first compound 0.01 µM) turned out to be 0.322; in assay [3] (first compound 0.03162 µM), 0.316; in assay [3] (first compound 0.1 µM), 0.279; in assay [4] (first compound 0.001 µM), 0.683; in assay [4] (first compound 0.003162 µM), 0.775; in assay [4] (first compound 0.01 µM), 0.684. The relative viability in assay [4] (first compound 0.03162 µM) is 0.689; in assay [4] (first compound 0.1 µM) it was 0.645.
